Data reported in patent publication US20230089534A1, “PHENOLIC COMPOSITIONS FOR MALODOR REDUCTION” (Milliken & Company, priority 2021, published 2023).

Legend:
[1] = Wash test: malodor marker reduction on artificial body soil treated fabric, headspace GCMS; details: Table 5, vs control detergent nil antioxidant
Experimental: In order to test the efficiency of the antioxidants for malodor reduction, an artificial body soil (ABS) was prepared. The artificial body soil is a modified version of the soil from ASTM D4265-21. To prepare the ABS, the components of Table 1 were combined in an 8 oz. jar and heated to 70° C. until fully solubilized.
50/50 Cotton/poly interlock fabric (Style 7439 GB, Testfabrics, Inc.) was cut into 2 in×5 in swatches. Cut swatches were dosed with three equally spaced 0.36 mL portions of artificial body soil composition. Fabrics were then sealed together in a mylar bag and incubated at 37° C. for four to seven days prior to wash treatment.
Antioxidant solution was prepared by dissolving the antioxidant compound to be tested in methanol at 0.5% w/w. The antioxidant solution was dosed into the wash water (500 mL) using a micropipettor according to Table 3 to obtain the desired concentration of antioxidant in wash water required for the testing.
To 1 L wash beaker was added 0.4 g Tide Free and Gentle detergent, 500 mL of wash water (as prepared in Table 2) and the antioxidant solution as described in Table 3. The wash beaker was placed in a tergetometer. To the wash beaker was added two incubated fabric swatches (4 g) followed by one 11 in×11 in 50/50 Cotton/Poly interlock knit clean fabric swatch (16 g, Style 74390B, Testfabrics, Inc.), for a total liquor to fabric ratio of 25:1. The fabrics were then washed in the tergotometer for 15 minutes and spun dried for one minute in a spin dryer (Mini Spin Dryer Model LASD-1 available from The Laundry Alternative, Inc.). […] The tests were run in triplicate and an average malodor reduction percent was calculated. […]
The percent malodor reduction is determined by GCMS using an Agilent Intuvo 9000 GC equipped with an Agilent 7000D GC/TQ mass spectrometer and a Trajan PAL 3 RTC sampler equipped with a solid phase micro-extraction (SPME) probe. […] The extracted ion chromatogram for 3-methyl-2-butenal includes Quantifier: 84, Qualifier: 55, Ratio: 35.7. […]

[2] = Stability of antioxidants in AATCC HE liquid detergent (crystallization/precipitation); assay type: physicochemical; details: room temperature, after 3 days
From the text: A comparison of the stability of the antioxidants in standard AATCC detergent was made to highlight the benefit of having a plurality of molecules. Due to the highly crystalline nature of many commercially available antioxidants, they tend to be incompatible in detergent and will crystallize out of the detergent over time. The inventive compounds of this invention show improvements in remaining stable in liquid detergent.
The antioxidants in table 6 were combined with AATCC HE liquid detergent without optical brighteners (available from Test Fabrics, Inc., Item #0501001) in a 20 mL glass scintillation vial. The vials were placed in a sonicator for 1 hour, then heated to 80° C. for 30 minutes, whereby all samples were completely dissolved. The samples were removed from the oven, swirled briefly and hand then allowed to cool to room temperature. When the vials were cooled down to room temperature, the bottom of the vials were scratched with a metal spatula a few times to aide in the crystallization process, which can take a long time if left undisturbed. After an additional 3 days, observations were recorded as crystallization present or not present in Table 6.

Cc1cc(CCC(=O)OCCOCCOCCOC(=O)CCc2cc(C)c(O)c(C(C)(C)C)c2)cc(C(C)(C)C)c1O [Irganox 245, 2-[2-(2-{3-[3-(tert-Butyl)-4-hydroxy-5-tolyl]propionoxy}ethoxy)ethoxy]ethyl 3-[3-(tert-butyl)-4-hydroxy-5-tolyl]propionate]
% Malodor marker reduction ([1]; 2 ppm in wash water): 44.0%
% Malodor marker reduction ([1]; 4 ppm in wash water): 74.4%
% Malodor marker reduction ([1]; 8 ppm in wash water): 89.5%
Precipitation Seen ([2]; loading 500 ppm in AATCC detergent): No
Precipitation Seen ([2]; loading 1000 ppm in AATCC detergent): No
Precipitation Seen ([2]; loading 5000 ppm in AATCC detergent): Yes
Precipitation Seen ([2]; loading 10000 ppm in AATCC detergent): Yes
